Assay [1] deals with T1, human constitutive proteasome β5c (Homo sapiens, UniProt P28074).
T1 construct: purchased Boston Biochem Inc
As to the kind of experiment: IC50 against chymotryptic β5c activity of human constitutive proteasome (96-well plate, Suc-LLVY-AMC). The format is biochemical. As to conditions: β5c; substrate Suc-LLVY-AMC; read-out: IC50 Hu c-20S (Suc-LLVY-AMC). As for the experimental part: A 96-well-plate assays were used to determine the IC50s against the chymotryptic β5 activities of the proteasomes. Both human constitutive proteasome and immunoproteasome were purchased from Boston Biochem Inc. 1 μL of 100× compound in DMSO at designated concentrations were spotted at the bottom of the wells. DMSO was used as a control. Final concentrations of the inhibitors were from 100 μM to 0.098 μM. The hydrolysis of the substrate over time in each well was monitored at excitation 360 nm, emission 460 nm for 90 minutes. IC50s were estimated by fitting the velocities of hydrolysis against compound concentrations using PRISM. […] Suc-LLVY-AMC was used for βc at final concentration of 25 μM, and Ac-ANW-AMC for b5i at final concentration of 15 μM. SDS (0.02%) was used as activator, and 0.01% BSA was used in the reaction buffer.
The foregoing features of these AsnEDA encouraged a further round of SAR studies (Table 5) based on varying the carboxylic acid at the ethylenediamine, the N-cap at the Asn, and the side chain of the Asn, based on PKS21004. All compounds listed in the Table 5 were synthesized as described in Examples 6-77. All final compounds were confirmed by NMR and HRMS. IC50s of all compounds against β5i and β5c (Table 5), β1i, β2i, β1c and β2c were determined following a reported method (Lin et al., “N,C-Capped Dipeptides With Selectivity for Mycobacterial Proteasome Over Human Proteasomes: Role of S3 and S1Binding Pockets,” J Am Chem Soc. 135:9968-9971 (2013), which is hereby incorporated by reference in its entirety). […] The [1,1′-biphenyl]-3-carboxamide of PKS21004 was then modified with the following substituents: 4′-fluoro (PKS21026), 4′-cyano (PKS21028), 4-fluoro (PKS21196), 4,3′-difluoro (PKS21195) and 4,2′-difluoro (PKS21187).

A further assay concerns Plasmodium falciparum. Kind of assay: Growth of Plasmodium falciparum in red blood cells (SYBR Green, 72 hours). The format is cell-based. As for the experimental part: Continuous in vitro cultures of Plasmodium falciparum: were maintained in human red blood cells (RBC) diluted to a hematocrit of 5% in RPMI 1640 medium with HEPES and Hypoxanthine and completed with 0.5% Albumax II (Invitrogen), 0.25% sodium bicarbonate, and 0.1 mg/ml gentamicin. Parasites were incubated at 37° C. in a gas mixture of 5% oxygen, 5% carbon dioxide, and 90% nitrogen.
Parasite sensitivity to novel compounds were determined using a SYBR Green (Invitrogen S1046) drug assay protocol. P. falciparum of various clinic stains were cultured with compounds at concentrations in a series of dilution in a clear, sterile 96-well plate for 72 hours. Subsequently, 150 μl of the cultures were transferred to a black 96-well plate and placed in the freezer for red blood cell lysis. The plates were thawed and suspended in a Sybr Green Lysis buffer. GraphPad Prism was used to analyze the raw data collected […]. Drug concentrations were converted to logarithms, normalized, and then curve fitted by non-linear regression to obtain EC50 values.
Plasmodium falciparum: parasites were cultured in human red cells. Drug assays were run in 96 well plates at a total volume of 200 μl. Assays were set up at a starting parasitemia (percent of infected red cells) of 0.5%. Test compounds were plated at concentrations of 2778 nM to 0.4 nM. The test plates were grown under standard low oxygen conditions at 37° C. for 72 hours. At that time the plates were prepared for growth determination, first the plates were frozen and thawed to lyse the red blood cells, 150 μl of the lysed thawed culture was transferred to a black 96 well plate, and mixed in a lysis buffer with SYBR green DNA dye. The fluorescence of each well was recorded in a plate reader with excitation wavelength 490 nm and emission wavelength 530 nm and normalized relative to DMSO control. The EC50s were determined using Prism software.

The target of assay [2] is T2, human immunoproteasome β5i (Homo sapiens, UniProt P28062).
T2 construct: purchased Boston Biochem Inc
As to the kind of experiment: IC50 against chymotryptic β5i activity of human immunoproteasome (96-well plate, Ac-ANW-AMC). The conditions noted are these: for IC50: β5i, substrate Ac-ANW-AMC, read-out: IC50 Hu i-20S (Ac-ANW-AMC). The format is biochemical. As for the experimental part: A 96-well-plate assays were used to determine the IC50s against the chymotryptic β5 activities of the proteasomes. Both human constitutive proteasome and immunoproteasome were purchased from Boston Biochem Inc. 1 μL of 100× compound in DMSO at designated concentrations were spotted at the bottom of the wells. DMSO was used as a control. […] The hydrolysis of the substrate over time in each well was monitored at excitation 360 nm, emission 460 nm for 90 minutes. IC50s were estimated by fitting the velocities of hydrolysis against compound concentrations using PRISM. […] SDS (0.02%) was used as activator, and 0.01% BSA was used in the reaction buffer.

A further assay has as its system Pf20S β5. As to the kind of experiment: Labeling of Pf20S active subunits by activity probe MV151 in Pf lysates. The conditions noted are these: 1 hour with inhibitor, then MV151 (2 μM) 1 hour. It is filed as biochemical, P. falciparum. The procedure: Pf lysates were incubated with inhibitors at indicated concentrations for 1 hour prior to incubation with MV151 (2 μM) for an additional hour. SDS pages were scanned on a Typhoon fluorescent scanner. […] BTZ was used as a positive control.

For another assay, the system named is Pf Gametocytes. As to the kind of experiment: Gametocyte killing assay (DilC1(5), flow cytometry). It is filed as cell-based. The conditions noted are these: Plasmodium falciparum; NF54 peg4-tdTomato, 72 hour incubation; read-out: EC50 against Pf Gametocytes. As for the experimental part: Asexual replication of NF54 peg4-tdTomato parasites was eliminated by treating with 50 mM GlcNAc and 20 U/mL Heparin for 3 days. NF54 peg4-tdTomato parasites then were maintained using standard culture techniques. Gametocytes were induced synchronously according to Fivelman et al., “Improved Synchronous Production of Plasmodium Falciparum Gametocytes in Vitro,” Mol Biochemo Parasitol. 154(1):119-123 (2007), which is hereby incorporated by reference in its entirety. Asexual replication was eliminated by treating with 50 mM GlcNAc for 3 days. Gametocyte killing assays were setup on days 5 and 10 in triplicate 96-well format at 1% hematocrit and 2% gametocytemia. Compounds were setup in triplicate and serially diluted 3-fold. In addition, 6 solvent controls (DMSO) were distributed evenly across the plate. Following a 72 hour incubation, Stage III-IV (Day 5-7) and Stage IV-V (Day 10-12), (start the incubation in the afternoon on Day 5 and Day 10, take out plate for assay on Day8 and Day13 afternoon) cultures were stained with 16 nM Hoechst 33342 and 50 nM DilC1(5) for 30 min at 37 C. Using a Cytek DxP12 flow cytometer, gametocytemia was determined by gating for DNA+, hemozoin-high cells and gametocyte viability was inferred based on mitochondrial membrane potential-dependent accumulation of DilC1(5) for 2000-3000 gametocytes (Tanaka et al., “Potent Plasmodium Falciparum Gametocytocidal Activity of Diaminonaphthoquinones, Lead Antimalarial Chemotypes Identified in an Antimalarial Compound Screen,” Antimicrob. Agents Chemother. 2015, 59:1389 (2015), which is hereby incorporated by reference in its entirety). Mean DilC1(5) signal was normalized to solvent control and the overall minimum and used to calculate the EC50 (FIG. 3 and Table 4).
In general terms: A flow cytometer gives signals particle by particle.

The mark [3] stands for this setting: Erythrocyte, P.f. 3D7, growth in red blood cells, read-out: EC50 (nM) (P.f.).

Structures are written as SMILES. Entries after “also recorded” stand apart in the source; their conditions may differ. Read-outs that look alike come from different tables or passages of the source.

The IC50 is the concentration that inhibits the measured activity by half. On to `CC(CNC(=O)c1cccc(-c2ccccc2)c1)NC(=O)[C@H](CC(=O)NC(C)(C)C)NC(=O)CCc1ccccc1` (mixture of isomers) [PKS21018], for which the concentration for half-maximal inhibition (IC50) in assay [1] is 14600 nM; in assay [2], 2350 nM. For the same compound, the EC50 in the assay on Plasmodium falciparum (setting [3]) is 364 nM.
Taken in the same sequence, the figures for `CC(C)(C)NC(=O)C[C@H](NC(=O)CCc1ccccc1)C(=O)NCCNC(=O)c1cccc2ccccc12` [PKS3080] were 1220 nM, 370 nM and 23 nM.
For `CC(C)(C)NC(=O)C[C@H](NC(=O)CCc1ccccc1)C(=O)NCCNC(=O)c1ccc(-c2ccccc2)cc1` [PKS21003], the “labeling of Pf20S β5 by MV151” value in the assay on Pf20S β5 is given as “did not”. Further, the IC50 in assay [1] and in assay [2] was over 100000 nM in each case. Also, the EC50 with Plasmodium falciparum (D6, Erythrocyte, read-out: EC50s against P. falciparum strain D6) is over 2770 nM; in the assay on Plasmodium falciparum (DD2, Erythrocyte, read-out: EC50s against P. falciparum strain Dd2), over 2770 nM; in the assay with Plasmodium falciparum (setting [3]), over 2770 nM; with Plasmodium falciparum (Erythrocyte, read-out: EC50s against P. falciparum strain IPC 3663), over 2770 nM; in the assay with Plasmodium falciparum (Erythrocyte, read-out: EC50s against P. falciparum strain IPC 4884), over 2770 nM; with Plasmodium falciparum (Erythrocyte, read-out: EC50s against P. falciparum strain IPC 5188) it was over 2770 nM. The EC50 was over 2770 nM in the assay on Plasmodium falciparum (Erythrocyte, read-out: EC50s against P. falciparum strain Sb1-a6); over 2770 nM in the assay on Plasmodium falciparum (Erythrocyte, read-out: EC50s against P. falciparum strain V1S); over 2770 nM with Plasmodium falciparum (HB3, Erythrocyte, read-out: EC50s against P. falciparum strain HB3).
For `CC(C)(C)NC(=O)C[C@H](NC(=O)CCc1ccccc1)C(=O)NCCCNC(=O)c1cccc(-c2ccccc2)c1` [PKS21019], the 50% inhibitory concentration (IC50) in assay [1] is 3460 nM; in assay [2] it was 276 nM. Moreover, the EC50 in the assay with Plasmodium falciparum (setting [3]) was 30 nM.
`CC(C)(C)NC(=O)C[C@H](NC(=O)CCc1ccccc1)C(=O)NCCNC(=O)c1ccc2ccccc2c1` [PKS21025]: the IC50 in assay [1] stood at 3600 nM; in assay [2], 284 nM. In addition, the EC50 in the assay with Plasmodium falciparum (setting [3]) came out at 320 nM. Besides, the “improved potency against β5i” value in assay [2] (relative to PKS3080) is 3 fold. Also, the “selectivity for β5i over β5c” value in assay [2] (β5i over β5c) came to 26 fold.
With `CC(C)(C)NC(=O)C[C@H](NC(=O)CCc1ccccc1)C(=O)NCCNC(=O)c1cccc(-c2ccc(F)cc2)c1` [PKS21026], the half-inhibitory concentration (IC50) in assay [1] was determined as 1160 nM; in assay [2], 110 nM. In the assay with Plasmodium falciparum (setting [3]), the EC50 came to 100 nM.
`Cc1cc(C(=O)N[C@@H](CC(=O)NC(C)(C)C)C(=O)NCCNC(=O)c2cc(-c3ccccc3)ccn2)no1` [PKS21224]: the IC50 came out at 33700 nM in assay [1] and 746 nM in assay [2]. Further, the EC50 worked out at 11 nM in the assay with Plasmodium falciparum (setting [3]) and 162 nM with Pf Gametocytes.
As to `Cc1ccc(S(=O)(=O)N[C@@H](CC(=O)NC(C)(C)C)C(=O)NCCNC(=O)c2cc(-c3ccccc3)ccn2)cc1` [PKS21229], the concentration for half-maximal inhibition (IC50) was found to be 510 nM in assay [1] and 19 nM in assay [2]. Moreover, the EC50 in the assay on Plasmodium falciparum (setting [3]) worked out at 1 nM.
Turning to `Cc1cc(C(=O)N[C@@H](CC(=O)NC(C)(C)C)C(=O)NCCNC(=O)c2cccc(-c3cc[nH]n3)c2)no1` [PKS21287], the “labeling of Pf20S β5 by MV151” value in the assay on Pf20S β5 is given as “block labeling; also recorded: dose-dependently inhibited the labeling”. Besides, the results for the IC50 in assay [1] and in assay [2] were 21100 nM and 1150 nM, respectively. In addition, the results for the EC50 with Plasmodium falciparum (setting [3]) and in the assay with Pf Gametocytes were 34 nM and 206 nM, respectively.
Consider `Cc1ccc(S(=O)(=O)N[C@@H](CC(=O)NC(C)(C)C)C(=O)NCCNC(=O)c2ccccc2F)cc1` [PKS21291], for which the figures for the IC50 in assay [1] and in assay [2] were 520 nM and 55 nM, respectively. In addition, the EC50 with Plasmodium falciparum (setting [3]) amounted to 11 nM.
Take `Cc1ccc(S(=O)(=O)N[C@@H](CC(=O)NC(C)(C)C)C(=O)NCCNC(=O)c2ccccc2O)cc1` [PKS21292]: the figures for the IC50 in assay [1] and in assay [2] were 187 nM and 15 nM, respectively. For the same compound, in the assay on Plasmodium falciparum (setting [3]), the EC50 stood at 2.9 nM.
For `Cc1cc(C(=O)N[C@@H](CC(=O)NC(C)(C)C)C(=O)NCCNC(=O)c2cccc(-n3cccn3)c2)no1` [TDI4258], the EC50 with Plasmodium falciparum (setting [3]) is 29 nM.

For the origin of these results see US11629141B2, “Proteasome inhibitors and uses thereof” (CORNELL UNIVERSITY, priority 2015, dated 2023).
